# Measured values reported in patent US9771369B2, “Compounds and methods for kinase modulation, and indications therefor” (Plexxikon Inc., priority 2014, dated 2017).
# Target: c-kit mutant D816V (Homo sapiens (Human), UniProt P10721, D816V/DEL694-753)
# Test: c-Kit mutant D816V biochemical assay (AlphaScreen kinase activity)
# Procedure: The c-kit mutant D816V (or kinase domain thereof) is an active kinase in AlphaScreen. IC50 values are determined with respect to inhibition of c-Kit mutant D816V kinase activity, where inhibition of phosphorylation of a peptide substrate is measured as a function of compound concentration. Compounds to be tested were dissolved in DMSO to a concentration of 30 mM. These were diluted […] of DMSO (4 mM) and 1 μl was added to an assay plate. These were then serially diluted 1:3 (50 μl to […] DMSO) for a total of 8 points. Plates were prepared such that each kinase reaction is […] in 1× kinase buffer (25 mM HEPES, pH 7.2, 8 mM MgCl2, 2 mM MnCl2, 50 mM NaCl, 0.01% Brij, 1 mM DTT, 0.01% BSA), 5% DMSO and 10 μM ATP. Substrate was 30 nM biotin-(E4Y)10 (EMD Millipore, Cat#12-440). C-kit mutant D816V kinase was at 0.75 ng per sample. After incubation of the kinase reaction for 30 minutes at room temperature, 5 μl of donor beads (Streptavidin coated beads (Perkin Elmer Life Science) final concentration 7.5 μg/ml) in stop buffer (25 mM Hepes pH 7.5, 100 mM EDTA, 0.01% BSA) was added, the sample was mixed and incubated for 30 minutes at room temperature before adding […] of acceptor beads (PY30 coated beads (Perkin Elmer Life Science) final concentration 7.5 μg/ml) in stop buffer. The samples were incubated for 60 minutes at room temperature and the signal per well was read on EnVision reader. Phosphorylated substrate results in binding of the PY30 antibody and association of the donor and acceptor beads such that signal correlates with kinase activity. The signal vs. compound concentration was used to determine the IC50.
# Recombinant c-kit mutant D816V (residues 551-934, kinase insertion domain residues 694-753 deleted) with a 6×-histidine N-terminal tag (SEQ ID NO: 3) was expressed in E. coli Arctic Express (DE3) RIL (Stratagene). Cells were grown in Terrific Broth (TB) media to an OD600 of 0.6 at 37° C. at which temperature was reduced to 10° C., protein was induced with 1.0 mM IPTG for 18 hours and harvested by centrifugation at 8000×g for 30 minutes. Cells were re-suspended in 0.1M KPO4 pH 8.0, 250 mM NaCl, 10% Glycerol, 0.75% NP-40, 25 mM Imidazole, 5 mM BME with 0.2 mg/ml Lysosyme, 2.0 mM PMSF, 25 μg/ml DNAse I, incubated in ice for 30 minutes and lyzed with a cell disruptor (MicroFluidics). The lysate was clarified by centrifugation at 30,000×g for 2 hours. The protein was captured with Talon resin (Clontech). Contaminating proteins were washed off with 25 mM Tris-HCl pH 8.3, 250 mM NaCl, 15% Glycerol, 1% Triton X-100, and protein eluted using 100 mM EDTA. The protein was further purified using Gel Filtration column 26/600 Superdex 300 (GE) in 50 mM Tris-HCl , pH 8.0, 250 mM NaCl, 15% Glycerol, 5 mM BME. The protein was aliquoted and flash-frozen in liquid Nitrogen.
# Chain of c-kit mutant D816V (P10721 other isoform, or with tags, fused parts or gaps D816V/del 694-753): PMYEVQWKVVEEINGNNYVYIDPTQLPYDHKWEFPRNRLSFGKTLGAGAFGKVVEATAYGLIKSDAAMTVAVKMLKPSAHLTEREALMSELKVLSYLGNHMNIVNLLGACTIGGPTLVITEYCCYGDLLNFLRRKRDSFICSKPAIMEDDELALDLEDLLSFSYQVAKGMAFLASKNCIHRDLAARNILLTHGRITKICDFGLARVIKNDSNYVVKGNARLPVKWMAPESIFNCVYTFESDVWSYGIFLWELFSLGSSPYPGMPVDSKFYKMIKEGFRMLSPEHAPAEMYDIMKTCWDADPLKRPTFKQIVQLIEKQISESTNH
row,SMILES,IC50 [µM]
1,"CCOc1ccc(-c2[nH]c(C3(CC)CCN(c4ncnc5[nH]c(C)cc45)CC3)nc2C)cc1 [P-3145, 4-[4-[5-(4-ethoxyphenyl)-4-methyl-1H-imidazol-2-yl]-4-ethyl-1-piperidyl]-6-methyl-7H-pyrrolo[2,3-d]pyrimidine]",0.0001 to 1
2,"COc1ccc(-c2cc3c(N4CCC(C)(c5nc(C)c(-c6ccc(OC)c(C)c6)[nH]5)CC4)ncnc3[nH]2)cn1 [P-3157, 4-[4-[5-(4-methoxy-3-methyl-phenyl)-4-methyl-1H-imidazol-2-yl]-4-methyl-1-piperidyl]-6-(6-methoxy-3-pyridyl)-7H-pyrrolo[2,3-d]pyrimidine]",0.0001 to 1
3,"COc1ccc(-c2[nH]c(C3CCN(c4ncnc5[nH]c(-c6ccc(C#N)cc6)cc45)CC3)nc2C)cn1 [P-3112, 4-[4-[4-[5-(6-methoxy-3-pyridyl)-4-methyl-1H-imidazol-2-yl]-1-piperidyl]-7H-pyrrolo[2,3-d]pyrimidin-6-yl]benzonitrile]",0.0001 to 1
4,"Cc1nc(C2(C)CCN(c3ncnc4[nH]c(-c5cnn(C(F)F)c5)cc34)CC2)[nH]c1-c1ccc2c(c1)OCO2 [P-3155, 4-[4-[5-(1,3-benzodioxol-5-yl)-4-methyl-1H-imidazol-2-yl]-4-methyl-1-piperidyl]-6-[1-(difluoromethyl)pyrazol-4-yl]-7H-pyrrolo[2,3-d]pyrimidine]",0.0001 to 1
5,"CCOc1cc(-c2[nH]c(C3CCN(c4ncnc5[nH]c(-c6ccnc(OC)c6)cc45)CC3)nc2C)ccc1C [P-3096, 4-[4-[5-(3-ethoxy-4-methyl-phenyl)-4-methyl-1H-imidazol-2-yl]-1-piperidyl]-6-(2-methoxy-4-pyridyl)-7H-pyrrolo[2,3-d]pyrimidine]",0.0001 to 1
6,"COc1cc(-c2cc3c(N4CCC(c5nc(C)c(-c6ccc(F)cc6)[nH]5)CC4)ncnc3[nH]2)ccn1 [P-3007, 4-[4-[5-(4-fluorophenyl)-4-methyl-1H-imidazol-2-yl]-1-piperidyl]-6-(2-methoxy-4-pyridyl)-7H-pyrrolo[2,3-d]pyrimidine]",0.0001 to 1
7,"Cc1nc(C2CCN(c3ncnc4[nH]c(-c5cnn(C(F)F)c5)cc34)CC2)[nH]c1-c1ccc2c(c1)OCO2 [P-3138, 4-[4-[5-(1,3-benzodioxol-5-yl)-4-methyl-1H-imidazol-2-yl]-1-piperidyl]-6-[1-(difluoromethyl)pyrazol-4-yl]-7H-pyrrolo[2,3-d]pyrimidine]",0.0001 to 1
8,"Cc1nc(C2CCN(c3ncnc4[nH]c(-c5ccc(F)cc5)cc34)CC2)[nH]c1-c1ccc(C(F)(F)F)cc1 [P-3136, 6-(4-fluorophenyl)-4-[4-[4-methyl-5-[4-(trifluoromethyl)phenyl]-1H-imidazol-2-yl]-1-piperidyl]-7H-pyrrolo[2,3-d]pyrimidine]",0.0001 to 1
9,"Cc1nc(C2CCN(c3ncnc4[nH]c(-c5cnn(C(F)F)c5)cc34)CC2)[nH]c1-c1ccc2c(c1)OCCO2 [P-3133, 6-[1-(difluoromethyl)pyrazol-4-yl]-4-[4-[5-(2,3-dihydro-1,4-benzodioxin-6-yl)-4-methyl-1H-imidazol-2-yl]-1-piperidyl]-7H-pyrrolo[2,3-d]pyrimidine]",0.0001 to 1
10,"Cc1ccc(-c2[nH]c(C3CCN(c4ncnc5[nH]c(-c6ccc(F)cc6)cc45)CC3)nc2C(F)(F)F)cc1 [P-3135, 6-(4-fluorophenyl)-4-[4-[5-(p-tolyl)-4-(trifluoromethyl)-1H-imidazol-2-yl]-1-piperidyl]-7H-pyrrolo[2,3-d]pyrimidine]",0.0001 to 1
11,"Cc1nc(C2CCN(c3ncnc4[nH]c(-c5cccc(C(F)(F)F)c5)cc34)CC2)[nH]c1-c1ccccc1 [P-3098, 4-[4-(4-methyl-5-phenyl-1H-imidazol-2-yl)-1-piperidyl]-6-[3-(trifluoromethyl)phenyl]-7H-pyrrolo[2,3-d]pyrimidine]",0.0001 to 1
12,"Cc1cc2c(N3CCC(C)(c4nc(C)c(-c5ccc6c(c5)OC(F)(F)O6)[nH]4)CC3)ncnc2[nH]1 [P-3152, 4-[4-[5-(2,2-difluoro-1,3-benzodioxol-5-yl)-4-methyl-1H-imidazol-2-yl]-4-methyl-1-piperidyl]-6-methyl-7H-pyrrolo[2,3-d]pyrimidine]",0.0001 to 1
13,"CCc1ccc(-c2[nH]c(C3(C)CCN(c4ncnc5[nH]c(C)cc45)CC3)nc2C)cc1 [P-3101, 4-[4-[5-(4-ethylphenyl)-4-methyl-1H-imidazol-2-yl]-4-methyl-1-piperidyl]-6-methyl-7H-pyrrolo[2,3-d]pyrimidine]",0.0001 to 1
14,"COc1cc(-c2[nH]c(C3CCN(c4ncnc5[nH]c(C)cc45)CC3)nc2C)ccc1C [P-3129, 4-[4-[5-(3-methoxy-4-methyl-phenyl)-4-methyl-1H-imidazol-2-yl]-1-piperidyl]-6-methyl-7H-pyrrolo[2,3-d]pyrimidine]",1 to 10
15,"CCOc1ccc(-c2[nH]c(C3(C)CCN(c4ncnc5[nH]c(-c6ccc(C#N)cc6)cc45)CC3)nc2C)cc1 [P-3161, 4-[4-[4-[5-(4-ethoxyphenyl)-4-methyl-1H-imidazol-2-yl]-4-methyl-1-piperidyl]-7H-pyrrolo[2,3-d]pyrimidin-6-yl]benzonitrile]",0.0001 to 1
16,"COc1ccc(-c2[nH]c(C3CCN(c4ncnc5[nH]c(-c6ccnc(OC)c6)cc45)CC3)nc2C(F)(F)F)cc1 [P-3146, 4-[4-[5-(4-methoxyphenyl)-4-(trifluoromethyl)-1H-imidazol-2-yl]-1-piperidyl]-6-(2-methoxy-4-pyridyl)-7H-pyrrolo[2,3-d]pyrimidine]",0.0001 to 1
17,"COc1ccc(-c2[nH]c(C3CCN(c4ncnc5[nH]c(-c6cnn(C(F)F)c6)cc45)CC3)nc2C)cc1 [P-3108, 6-[1-(difluoromethyl)pyrazol-4-yl]-4-[4-[5-(4-methoxyphenyl)-4-methyl-1H-imidazol-2-yl]-1-piperidyl]-7H-pyrrolo[2,3-d]pyrimidine]",0.0001 to 1
18,"Cc1nc(C2CCN(c3ncnc4[nH]c(-c5ccc(F)cc5)cc34)CC2)[nH]c1-c1ccc(Cl)s1 [P-3119, 4-[4-[5-(5-chloro-2-thienyl)-4-methyl-1H-imidazol-2-yl]-1-piperidyl]-6-(4-fluorophenyl)-7H-pyrrolo[2,3-d]pyrimidine]",0.0001 to 1
19,"COc1cccc(-c2[nH]c(C3CCN(c4ncnc5[nH]c(-c6cnn(C(F)F)c6)cc45)CC3)nc2C)c1 [P-3114, 6-[1-(difluoromethyl)pyrazol-4-yl]-4-[4-[5-(3-methoxyphenyl)-4-methyl-1H-imidazol-2-yl]-1-piperidyl]-7H-pyrrolo[2,3-d]pyrimidine]",0.0001 to 1
20,"COc1ccc(-c2[nH]c(C3CCN(c4ncnc5[nH]c(-c6ccc(C#N)cc6)cc45)CC3)nc2C(F)(F)F)cc1 [P-3148, 4-[4-[4-[5-(4-methoxyphenyl)-4-(trifluoromethyl)-1H-imidazol-2-yl]-1-piperidyl]-7H-pyrrolo[2,3-d]pyrimidin-6-yl]benzonitrile]",0.0001 to 1
21,"Cc1ccc(-c2[nH]c(C3CCN(c4ncnc5[nH]c(-c6ccc(F)cc6)cc45)CC3)nc2C)s1 [P-3118, 6-(4-fluorophenyl)-4-[4-[4-methyl-5-(5-methyl-2-thienyl)-1H-imidazol-2-yl]-1-piperidyl]-7H-pyrrolo[2,3-d]pyrimidine]",0.0001 to 1
22,"Cc1nc(C2CCN(c3ncnc4[nH]c(-c5cnn(C(F)F)c5)cc34)CC2)[nH]c1-c1ccc(OC(F)(F)F)cc1 [P-3116, 6-[1-(difluoromethyl)pyrazol-4-yl]-4-[4-[4-methyl-5-[4-(trifluoromethoxy)phenyl]-1H-imidazol-2-yl]-1-piperidyl]-7H-pyrrolo[2,3-d]pyrimidine]",0.0001 to 1
23,"Cc1nc(C2(C)CCN(c3ncnc4[nH]c(-c5ccc(C#N)cc5)cc34)CC2)[nH]c1-c1ccc(C(F)F)cc1 [P-3164, 4-[4-[4-[5-[4-(difluoromethyl)phenyl]-4-methyl-1H-imidazol-2-yl]-4-methyl-1-piperidyl]-7H-pyrrolo[2,3-d]pyrimidin-6-yl]benzonitrile]",0.0001 to 1
24,"N#Cc1ccc(-c2cc3c(N4CCC(c5nc(C6CC6)c(-c6ccccc6)[nH]5)CC4)ncnc3[nH]2)cc1 [P-3010, 4-[4-[4-(4-cyclopropyl-5-phenyl-1H-imidazol-2-yl)-1-piperidyl]-7H-pyrrolo[2,3-d]pyrimidin-6-yl]benzonitrile]",0.0001 to 1
